Data published in patent US12404269B2, “Aminoquinazolinone and aminoisoquinolinone derivatives and application thereof” (ZHEJIANG UNIVERSITY, priority 2018, dated 2025).

Key:
PI3Kδ = biological target: T1, PI3Kδ (Homo sapiens, UniProt O00329); assay: PI3Kδ molecular activity test (ADP-GLO); format: biochemical; conditions: recombinant protein
T1 construct: purchased Carna Bioscience
Procedure: (§1) Instrument: ELISA Reader Envision™ (PerkinElmer, USA)
(§2) Materials: Human recombinant PI3K and PI3Kδ proteins, purchased from Carna Bioscience; ADP-GLO kit, purchased from Promega.
(§3) Take the PI3Kα Molecular Activity Test as an Example to Describe the Text Method of the PI3K Subtypes
(§4) PI3K-α recombinant protein and substrate ATP were diluted with kinase reaction buffer (50 mM Tris-HCl, pH 7.4, 2.1 mM DTT, 0.05% Tween-20, 10 mM MgCl2). […] The specific reaction system was 2% of DMSO, 0.8 ng/μL PI3K-α, and 100 μM ATP, the positive compound control groups and control wells were set, and there were 3 multiple-wells for each concentration of each sample. After incubating for 2 hours at room temperature, ADP-GLO Reagent and Kinase Detection Reagent were added respectively, and then Envision™ was used to detect the […] readings. The activity rate of the samples were calculated by the sample readings, and the calculation formula was: activity rate=(ODcompound−ODcontrol)/(ODDMSO−ODcontro) ×100%.

PI3Kα = biological target: T2, PI3Kα (Homo sapiens, UniProt P42336); assay: PI3Kα molecular activity test (ADP-GLO); format: biochemical; conditions: for Selectivity (PI3Kδ IC50/PI3KαIC50): PI3Kδ IC50/PI3Kα IC50; for IC50: recombinant protein, 100 μM ATP, 2 hours at room temperature
T2 construct: purchased Carna Bioscience
T2 sequence (P42336 whole entry): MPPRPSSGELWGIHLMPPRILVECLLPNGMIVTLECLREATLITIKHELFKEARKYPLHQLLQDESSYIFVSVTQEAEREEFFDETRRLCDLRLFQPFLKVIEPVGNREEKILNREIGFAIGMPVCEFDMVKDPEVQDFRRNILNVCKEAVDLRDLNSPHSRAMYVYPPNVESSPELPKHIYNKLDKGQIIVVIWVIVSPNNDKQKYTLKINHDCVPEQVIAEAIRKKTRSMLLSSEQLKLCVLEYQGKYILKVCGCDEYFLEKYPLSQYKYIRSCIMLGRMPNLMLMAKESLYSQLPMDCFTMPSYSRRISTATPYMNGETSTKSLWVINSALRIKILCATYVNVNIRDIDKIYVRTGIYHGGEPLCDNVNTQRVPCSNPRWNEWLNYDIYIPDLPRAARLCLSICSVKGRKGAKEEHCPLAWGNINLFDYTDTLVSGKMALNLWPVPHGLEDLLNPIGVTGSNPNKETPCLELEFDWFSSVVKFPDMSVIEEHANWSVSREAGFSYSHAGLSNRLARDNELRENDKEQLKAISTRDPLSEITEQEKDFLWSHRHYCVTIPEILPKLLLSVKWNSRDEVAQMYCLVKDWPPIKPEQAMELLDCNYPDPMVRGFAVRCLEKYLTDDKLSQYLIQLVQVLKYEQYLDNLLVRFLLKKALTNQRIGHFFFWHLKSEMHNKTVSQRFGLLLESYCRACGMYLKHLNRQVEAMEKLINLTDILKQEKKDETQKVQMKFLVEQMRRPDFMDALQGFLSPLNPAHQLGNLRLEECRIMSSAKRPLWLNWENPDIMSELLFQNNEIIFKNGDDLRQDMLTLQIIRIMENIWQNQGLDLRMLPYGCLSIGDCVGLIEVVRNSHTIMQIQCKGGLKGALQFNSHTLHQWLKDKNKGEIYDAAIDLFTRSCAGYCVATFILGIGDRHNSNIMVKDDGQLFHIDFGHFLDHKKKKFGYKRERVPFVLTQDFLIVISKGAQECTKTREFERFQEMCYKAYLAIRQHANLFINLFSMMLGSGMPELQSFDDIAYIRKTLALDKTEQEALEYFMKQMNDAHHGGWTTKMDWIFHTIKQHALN
T2 sequence (P27986 whole entry partner): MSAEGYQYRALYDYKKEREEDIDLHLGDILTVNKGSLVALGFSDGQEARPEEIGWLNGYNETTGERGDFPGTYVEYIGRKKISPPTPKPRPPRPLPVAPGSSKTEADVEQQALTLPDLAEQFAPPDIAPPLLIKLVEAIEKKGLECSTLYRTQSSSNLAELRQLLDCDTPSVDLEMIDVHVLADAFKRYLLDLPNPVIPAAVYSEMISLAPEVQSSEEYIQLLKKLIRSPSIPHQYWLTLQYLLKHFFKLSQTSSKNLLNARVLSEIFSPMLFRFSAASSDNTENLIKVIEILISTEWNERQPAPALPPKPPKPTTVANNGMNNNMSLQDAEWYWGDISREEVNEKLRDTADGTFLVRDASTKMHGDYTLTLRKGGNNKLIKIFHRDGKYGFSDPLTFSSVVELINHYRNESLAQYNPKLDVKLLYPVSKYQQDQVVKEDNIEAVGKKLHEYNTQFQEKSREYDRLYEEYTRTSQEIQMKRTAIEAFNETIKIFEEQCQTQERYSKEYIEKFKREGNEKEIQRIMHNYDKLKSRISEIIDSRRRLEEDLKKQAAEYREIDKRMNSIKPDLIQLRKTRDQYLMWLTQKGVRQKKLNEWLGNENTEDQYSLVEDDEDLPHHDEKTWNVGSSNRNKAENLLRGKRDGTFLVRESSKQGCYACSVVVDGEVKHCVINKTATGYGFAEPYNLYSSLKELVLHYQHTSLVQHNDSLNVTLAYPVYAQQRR
Procedure: as §1, §2, §3, §4

T1 sequence (O00329 whole entry): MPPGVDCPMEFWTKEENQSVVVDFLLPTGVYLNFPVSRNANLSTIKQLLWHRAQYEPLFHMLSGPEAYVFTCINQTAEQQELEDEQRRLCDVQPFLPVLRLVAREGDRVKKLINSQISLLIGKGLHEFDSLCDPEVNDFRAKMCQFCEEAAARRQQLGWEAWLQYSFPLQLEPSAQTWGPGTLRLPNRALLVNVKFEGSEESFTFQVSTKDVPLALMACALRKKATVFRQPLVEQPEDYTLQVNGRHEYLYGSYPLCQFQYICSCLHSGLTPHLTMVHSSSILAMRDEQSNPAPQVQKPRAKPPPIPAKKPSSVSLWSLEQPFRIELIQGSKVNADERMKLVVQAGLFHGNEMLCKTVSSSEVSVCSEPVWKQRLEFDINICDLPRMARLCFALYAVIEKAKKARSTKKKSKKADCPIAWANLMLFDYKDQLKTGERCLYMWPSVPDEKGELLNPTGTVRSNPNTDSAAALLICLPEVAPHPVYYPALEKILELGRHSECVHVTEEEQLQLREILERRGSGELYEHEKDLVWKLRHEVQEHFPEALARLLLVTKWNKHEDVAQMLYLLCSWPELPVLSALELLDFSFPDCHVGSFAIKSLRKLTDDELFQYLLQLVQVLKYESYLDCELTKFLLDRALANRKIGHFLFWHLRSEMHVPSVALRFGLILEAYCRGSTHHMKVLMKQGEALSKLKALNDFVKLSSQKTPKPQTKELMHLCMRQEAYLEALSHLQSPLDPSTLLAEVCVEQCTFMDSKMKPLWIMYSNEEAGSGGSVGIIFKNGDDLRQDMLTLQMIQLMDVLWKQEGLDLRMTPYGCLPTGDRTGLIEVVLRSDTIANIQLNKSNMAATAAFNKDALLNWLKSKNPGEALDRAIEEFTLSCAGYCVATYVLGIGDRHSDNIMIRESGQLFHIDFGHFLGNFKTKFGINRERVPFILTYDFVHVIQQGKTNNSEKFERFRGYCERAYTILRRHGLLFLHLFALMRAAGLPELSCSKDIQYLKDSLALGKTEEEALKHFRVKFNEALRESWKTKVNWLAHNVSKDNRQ
T1 sequence (P27986 whole entry partner): as the sequence (P27986 whole entry partner) above

IC50 (PI3Kδ) [nM]	Selectivity (PI3Kδ IC50/PI3KαIC50) (PI3Kα)	IC50 (PI3Kα) [nM]	SMILES
20 to 200	III (“III” represents >10 times)	< 20	COc1c(O)ccc2c(=O)n(C)c(NC(=O)c3cnc(N)nc3)nc12 [7a, 2-Amino-N-(8-methoxy-3-methyl-7-hydroxy-4-oxo-3,4-dihydroquinazolinone-2-yl) pyrimidine-5-carboxamide]
20 to 200	I (“I” represents <5 times)	20 to 200	COc1c(O)ccc2c(=O)n(CC(F)(F)F)c(NC(=O)c3cnc(N)nc3)nc12 [7e, 2-amino-N-(3-trifluoroethyl-7-hydroxy-8-methoxy-4-oxo-3,4-dihydroquinazolin-2-yl) pyrimidine-5-carboxamide]
20 to 200	III (“III” represents >10 times)	< 20	COc1c(OCCCC(N)=O)ccc2c(=O)n(C)c(NC(=O)c3cnc(N)nc3)nc12 [8a-9]
20 to 200	II (“II” represents 5-10 times)	< 20	COc1c(OCCCN2CCOCC2)ccc2c(=O)n(C)c(NC(=O)c3ccc(N)nc3)nc12 [8a-16]
20 to 200	III (“III” represents >10 times)	< 20	COc1c(OCCCN2CCOCC2)ccc2c(=O)n(C)c(NC(=O)c3cncnc3)cc12 [8a′-8]
20 to 200	III (“III” represents >10 times)	< 20	COc1c(OCCCN2CCOCC2)ccc2c(=O)n(C)c(NC(=O)c3ccnnc3)cc12 [8a′-9]
20 to 200	III (“III” represents >10 times)	< 20	CCn1c(NC(=O)c2cnc(N)nc2)nc2c(OC)c(OCCC(N)=O)ccc2c1=O [8b-3]
20 to 200	I (“I” represents <5 times)	20 to 200	COc1c(OCC(N)=O)ccc2c(=O)n(C(C)C)c(NC(=O)c3cnc(N)nc3)nc12 [8c-2]
20 to 200	I (“I” represents <5 times)	20 to 200	COc1c(OCCC(N)=O)ccc2c(=O)n(C(C)C)c(NC(=O)c3cnc(N)nc3)nc12 [8c-3]
20 to 200	I (“I” represents <5 times)	20 to 200	COc1c(OCC(N)=O)ccc2c(=O)n(C3CC3)c(NC(=O)c3cnc(N)nc3)nc12 [8d-2]

More lines, now with the values behind:

SMILES	IC50 (PI3Kδ) [nM]	Selectivity (PI3Kδ IC50/PI3KαIC50) (PI3Kα)	IC50 (PI3Kα) [nM]
COc1c(O)ccc2c(=O)n(CC(F)F)c(NC(=O)c3cnc(N)nc3)nc12 [7f, 2-amino-N-(3-difluoroethyl-7-hydroxy-8-methoxy-4-oxo-3,4-dihydroquinazolin-2-yl) pyrimidine-5-carboxamide]	20 to 200	I (“I” represents <5 times)	20 to 200
CNC(=O)COc1ccc2c(=O)n(C)c(NC(=O)c3cnc(N)nc3)nc2c1OC [8a-4]	20 to 200	II (“II” represents 5-10 times)	< 20
COc1c(OCC(=O)N(C)C)ccc2c(=O)n(C)c(NC(=O)c3cnc(N)nc3)nc12 [8a-5]	20 to 200	II (“II” represents 5-10 times)	< 20
COc1c(OCC(=O)N2CCOCC2)ccc2c(=O)n(C)c(NC(=O)c3cnc(N)nc3)nc12 [8a-8]	20 to 200	II (“II” represents 5-10 times)	< 20
COc1c(OCCCN2CCOCC2)ccc2c(=O)n(C)c(NC(=O)c3cncnc3)nc12 [8a-14]	20 to 200	II (“II” represents 5-10 times)	< 20
COc1c(OCCCN2CCOCC2)ccc2c(=O)n(C)c(NC(=O)c3ccnnc3)nc12 [8a-15]	20 to 200	II (“II” represents 5-10 times)	< 20
CCn1c(NC(=O)c2cncnc2)nc2c(OC)c(OCCCN3CCOCC3)ccc2c1=O [8b-14]	< 20	II (“II” represents 5-10 times)	20 to 200
CCn1c(NC(=O)c2cnc(N)nc2)cc2c(OC)c(OCCC(N)=O)ccc2c1=O [8b′-3]	20 to 200	III (“III” represents >10 times)	< 20
